In series [1] the test system is U87KO-EGFRvIII-nucRFP target cells. Kind of series: 4-day in vitro cytotoxicity assay against U87KO-EGFRvIII-nucRFP target cells (Example 16B). Type of series: cell-based. The settings on record: EGFRvIII CAR (2173 scFv); E:T 1:8; 500 ng/ml AP1903; 4 days; FIGS. 40A-40F. How it is done:
(§1) To test whether different cytotail outputs influenced the effector function of CAR T cells, we performed a 4-day in vitro cytotoxicity assay. Briefly, 30,000 U87KO-EGFRvIII-nucRFP target cells were seeded and allowed to attach in 96-well plates with black walls and flat clear bottom in 50 uL RPMI containing 10% FBS (Hyclone), non-essential amino acids, sodium pyruvate and 20-25 mM HEPES. U87KO-EGFRvIII is a kind gift from Cellectis SA (Paris, France). U87KO-EGFRvIII was derived from the parental cell line, U87MG (ATCC), by first knocking out endogenous wildtype EGFR using Transcription Activator-Like Effector Nucleases (TALEN), and then stably overexpressing full-length human EGFRvIII via lentiviral transduction. To facilitate target cell imaging via the IncuCyte Live Cell Analysis Imaging System, U87KO-EGFRvIII-nucRFP target cells were derived from U87KO-EGFRvIII by a second lentiviral transduction with IncuCyte NucLight Red Lentivirus Reagent (Sartorius). EGFRvIII CAR (2173 scFv) T cells bearing an FKBP switch with the respective cytotails were thawed and added to plated target cells at an Effector:Target (E:T) ratio of 1:8. As a comparison, CAR T cells coexpressing FKBP-MyD88-CD40 were included. […] The number of live target cells at each timepoint was determined by enumerating the number of live nuclearRFP+ cells using the Incucyte Live Cell Analysis Imaging System. […]

For series [2], the system named is CAR T cells. The series is described as follows: Cytokine release (MSD assay) at the end of the 4-day cytotoxicity assay (Example 16B). Type of series: cell-based. How it is done: as §1
Series [3] concerns STAT4. The series is described as follows: HEK293T transcription factor reporter assay of cytotails (Example 16A), Stat4. Type of series: cell-based. The settings on record: 1 ug/mL AP1903, 6 hours; FIG. 39B. The method, then:
To test the signaling pathways activated by different cytotails, we utilized a HEK293T cell reporter assay. Briefly, 20,000 HEK293T cells were plated into each well of a poly-L-lysine-coated 96-well flat-bottom plate and allowed to adhere overnight. An inducible cytokine receptor (2.5 ng), the respective transcription factor response element that drives Firefly Luciferase (100 ng; Promega) and a Renilla Luciferase control reporter vector (1 ng; Promega) were mixed in a final volume of 5 uL in Opti-MEM (Gibco) (“DNA mix”). 0.3 uL Lipofectamine 2000 (Invitrogen) in 5 uL Opti-MEM was incubated at room temperature for 5 minutes and then added to the DNA mix. The mixture was incubated at room temperature for 20 minutes and the total volume of 10 uL was added to each well containing HEK-293T. As a negative control, the FKBP ectodomain was coupled to the transmembrane and short intracellular region of TpoR(478-528) that lacked the JAK-binding domain and cytotail (i.e. TpoR CTRL). As a comparison, the FKBP ectodomain was coupled to the MyD88/CD40 signaling domains (henceforth referred to as “FKBP-MyD88-CD40”). 24 hours after transfection, cells were either left untreated, or treated with 1 ug/mL AP1903 (Apex Bio) diluted in serum-free media. 6 hours after AP1903 treatment, reporter activity was determined using the Dual-Glo Luciferase Assay System (Promega). […]
On the technique in general: In a reporter assay the amount or activity of a reporter protein is the signal.

Series [4] relates to CAR T cells. The series is described as follows: Cytokine release (MSD assay) on Day 5 of the AP1903-driven growth assay (Example 16B). Format: cell-based. The settings on record: 500 ng/ml of AP1903; FIGS. 42A-42B. How it is done: To test whether different cytotail outputs influenced the memory differentiation and long-term survival of CAR T cells, we performed an AP1903-driven growth assay. CAR T cells bearing the indicated chimeric receptors were thawed and the percentages of CAR+ cells were normalized to the sample with the lowest transduction efficiency (i.e. 20% CAR+) by adding non-transduced T cells. Cells were either left untreated, or treated with 500 ng/ml of AP1903, and in the absence of exogenous cytokines (unless specified in the case of positive controls) or target cells for 2 weeks. […] On Day 5 of the AP1903-driven growth assay, supernatents were sampled for the analysis of cytokine release using the MSD assay (Meso Scale Discovery). At the end of the 2-week culture, the memory and exhaustion phenotypes of surviving CAR T cells were determined. Briefly, duplicate samples from each culture condition cells were harvested and stained using the Zombie NIR Fixable Viability Kit (Biolegend). […]

In series [5] the target is FKBP12 containing the F36V mutation (Homo sapiens, UniProt P62942, F37V). As to conditions: literature (Jemal 2008; Scher and Kelly 1993); cited from earlier work.
Sequence of FKBP12 containing the F36V mutation (P62942 2-108 F37V): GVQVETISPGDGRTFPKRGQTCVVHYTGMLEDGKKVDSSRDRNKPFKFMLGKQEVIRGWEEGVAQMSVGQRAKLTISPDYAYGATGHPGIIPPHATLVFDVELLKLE
The test system of series [6] is CAR T cells. The series is described as follows: Target-independent AP1903-driven CAR T cell expansion, 2-week culture (Example 11). Type of series: cell-based, human. As to conditions: FKBP switch CAR T cells, IL7R(316-459)/IL12Rb2(775-825) cytotails; reference IL-7 and IL-12p70 10 ng/mL each; 2 weeks. How it is done:
Control CAR T cells or FKBP switch CAR T cells bearing IL7R(316-459)/IL12Rb2(775-825) cytotails were cultured with the indicated concentrations of AP1903, and in the absence of exogenous cytokines (unless specified in the case of positive controls) or target cells for 2 weeks. As a positive control, CAR T cells were alternatively supplemented with exogenous recombinant IL-7 (10 ng/mL; Miltenyi) and IL-12p70 (10 ng/mL; Biolegend) to mimic the dual IL-7R/IL12Rb2 outputs transmitted by FKBP switch activation. At the end of the 2-week culture, the number and quality of surviving CAR T cells were determined. Briefly, duplicate samples from each culture condition cells were harvested and stained using the Zombie NIR Fixable Viability Kit (Biolegend). Samples were washed with PBS, Fc blocked, then stained with the following antibody cocktail diluted in PBS+1% BSA: BUV395-conjugated anti-human CD3, BV510-conjugated anti-human CD8, BV605-conjugated human CD4 and FITC-conjugated v5 tag (for CAR detection), PE/Cy7-conjugated anti-human CD62L (Biolegend) and BV785-conjugated anti-human CD45RO (Biolegend). Finally, samples were washed in PBS and cell pellets were resuspended in 130 uL PBS+1% BSA containing 123count eBeads counting beads (Thermo Fisher) (10 uL counting beads in 120 uL PBS+1% BSA) prior to FACS analysis.

The target in series [7] is T1, BCMA ectodomain cytokine receptor (Homo sapiens, UniProt Q02223).
T1 construct: such as BCMA(1-54), TACI(1-165) and BAFFR(1-78); expressed in transfected cells; host or cells: HEK293T
T1 sequence (Q02223 1-54): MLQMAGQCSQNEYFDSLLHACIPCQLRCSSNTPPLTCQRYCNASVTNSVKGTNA
Kind of series: HEK293T Stat reporter assay of BCMA ectodomain cytokine receptor with soluble APRIL trimers (Example 14). Format: cell-based. The settings on record: 5 hours post-treatment; FIGS. 37C-37D. The text has this:
To test if the panel of ligand inducers and ectodomains can be further extended beyond the AP1903-FKBP(F36V) pairing, we tested signaling in response to other multimeric ligand inducers. As the Tumor Necrosis Family (TNF) superfamily of ligands are trimers, they engage their respective receptors in a multimeric fashion. Therefore, we fused ectodomains derived from the TNFR2 superfamily receptors, such as BCMA(1-54), TACI(1-165) and BAFFR(1-78), to the transmembrane and signaling domains of our chimeric cytokine receptors, and tested signaling in response to soluble trimeric ligand. Briefly, 20,000 HEK293T cells were plated into each well of a poly-L-lysine-coated 96-well flat-bottom plate and allowed to adhere overnight. The chimeric cytokine receptor (2.5 ng), a Stat response element that drives Firefly Luciferase (100 ng; Promega) and Renilla Luciferase control reporter vector (1 ng; Promega) were mixed in a final volume of 5 uL in Opti-MEM (Gibco) (“DNA mix”). 0.3 uL Lipofectamine 2000 (Invitrogen) in 5 uL Opti-MEM was incubated at room temperature for 5 minutes and then added to the DNA mix. […] 24 hours after transfection, cells were either left untreated, or treated with soluble BAFF or APRIL trimers diluted in serum-free media, and Stat reporter activity was determined 5 hours post-treatment using the Dual-Glo Luciferase Assay System (Promega). […]

The test system of series [8] is CAR T cells. Kind of series: AP1903-driven growth assay: enrichment, memory and exhaustion phenotype of CAR T cells (Example 16B). Format: cell-based. As to conditions: 2 weeks; exogenous recombinant cytokine 10 ng/mL; 20% CAR+ seeded; FIG. 43.
Protocol: To test whether different cytotail outputs influenced the memory differentiation and long-term survival of CAR T cells, we performed an AP1903-driven growth assay. CAR T cells bearing the indicated chimeric receptors were thawed and the percentages of CAR+ cells were normalized to the sample with the lowest transduction efficiency (i.e. 20% CAR+) by adding non-transduced T cells. Cells were either left untreated, or treated with 500 ng/ml of AP1903, and in the absence of exogenous cytokines (unless specified in the case of positive controls) or target cells for 2 weeks. As positive controls, CAR T cells were alternatively supplemented with either exogenous recombinant IL-7 or IL-2 (10 ng/mL each; Miltenyi). […] At the end of the 2-week culture, the memory and exhaustion phenotypes of surviving CAR T cells were determined. Briefly, duplicate samples from each culture condition cells were harvested and stained using the Zombie NIR Fixable Viability Kit (Biolegend). […]

“Also recorded” adds a separate entry of the source. Ends that are not written are not given here. Bounds are passed on as bounds.

With “IL12Rb2small(775-825): FKBP switch (Example 16) bearing the IL12Rb2small(775-825) cytotail (SDPKPENPACPWTVLPAGDLPTHDGYLPSNIDDLPSHEAPLADSLEELEPQ; also: FKBP switch fusion; UniProt Q99665 775-825, looked up, fragment)”, the “CAR T cell cytotoxicity in the presence of AP1903” value in series [1] is given as “enhances CART cell cytotoxic potency”. Besides, the IL-10 secretion entry in series [2] (AP1903, FIG. 41A) is “increased IL-10 secretion”. For the same molecule, the “pro-inflammatory cytokine release in the presence of AP1903” value in series [2] (IL-17A/F, IL-21, TNFa and IFNg, FIG. 41A) is “released elevated amounts of pro-inflammatory cytokines”. Moreover, in series [3], the Stat4 reporter activation entry was “activating Stat4”. In addition, the “cytokine release on Day 5 of AP1903-driven growth” value in series [4] is listed as “secrete elevated amounts of pro-inflammatory cytokines”.
Consider `CC[C@H](C(=O)N1CCCC[C@H]1C(=O)O[C@H](CCc1ccc(OC)c(OC)c1)c1cccc(OCC(=O)NCCNC(=O)COc2cccc([C@@H](CCc3ccc(OC)c(OC)c3)OC(=O)[C@@H]3CCCCN3C(=O)[C@@H](CC)c3cc(OC)c(OC)c(OC)c3)c2)c1)c1cc(OC)c(OC)c(OC)c1` [AP1903], for which the “binding affinity to FKBP12 containing the F36V mutation” value in series [5] is recorded as “high affinity; also recorded: much higher affinity than wild-type FKBP12”. The “AP1903 concentration sufficient to reach the level of expansion achieved by exogenous cytokine supplementation” value in series [6] was at most 1 ng/mL.
Consider “APRIL: soluble APRIL trimers, TNF superfamily ligand”, for which, in series [7], the “downstream Stat activation” value is given as “induced downstream Stat activation”.

B1: IL-7: exogenous recombinant IL-7 (Miltenyi), positive control (protein, UniProt P13232 26-177, looked up)
Interleukin-7: DCDIEGKDGKQYESVLMVSIDQLLDSMKEIGSNCLNNEFNFFKRHICDANKEGMFLFRAARKLRQFLKMNSTGDFDLHLLKVSEGTTILLNCTGQVKGRKPAALGEAQPTKSLEENKSLKEQKKLNDLCFLKRLLQEIKTCWNKILMGTKEH
As for B1, the “percentage of CAR+ cells” value in series [8] is recorded as around 20%.

The record behind these values is patent US12163169B2, “Inducible chimeric cytokine receptors” (Allogene Therapeutics, Inc., priority 2018, dated 2024).
